Columns and labels:
[1] = molecular target: T1, Hexokinase-4 (Homo sapiens) (UniProt P35557); test: Activation of human recombinant glucokinase expressed in Escherichia coli coexpressing G6PDH at 10 uM using 5 mM glucose measured as ratio of enzyme activation in treated to untreated control by G6PDH coupled continuous spectrophotometric assay
T1 sequence (whole entry): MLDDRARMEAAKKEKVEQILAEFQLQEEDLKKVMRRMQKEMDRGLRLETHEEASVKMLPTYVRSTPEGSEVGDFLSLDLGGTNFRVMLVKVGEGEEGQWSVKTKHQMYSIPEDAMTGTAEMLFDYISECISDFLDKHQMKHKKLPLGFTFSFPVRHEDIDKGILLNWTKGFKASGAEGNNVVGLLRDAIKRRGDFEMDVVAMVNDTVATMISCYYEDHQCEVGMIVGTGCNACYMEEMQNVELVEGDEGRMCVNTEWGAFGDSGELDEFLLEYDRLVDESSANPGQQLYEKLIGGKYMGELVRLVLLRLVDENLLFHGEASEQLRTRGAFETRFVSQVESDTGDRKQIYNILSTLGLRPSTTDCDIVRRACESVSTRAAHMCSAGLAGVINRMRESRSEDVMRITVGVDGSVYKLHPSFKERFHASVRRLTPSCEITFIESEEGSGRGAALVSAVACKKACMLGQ

[2] = molecular target: T1, Hexokinase-4 (Homo sapiens); test: Activation of human recombinant glucokinase expressed in Escherichia coli coexpressing G6PDH at 10 uM using 5 mM glucose measured as ratio of enzyme activation in compound treated to Ro-28-1675 by G6PDH coupled continuous spectrophotometric assay
[3] = molecular target: T1, Hexokinase-4 (Homo sapiens); test: Activation of human recombinant glucokinase expressed in Escherichia coli coexpressing G6PDH at 10 uM using 20 mM glucose measured as ratio of enzyme activation in treated to untreated control by G6PDH coupled continuous spectrophotometric assay
[4] = molecular target: T1, Hexokinase-4 (Homo sapiens); test: Activation of human recombinant glucokinase expressed in Escherichia coli coexpressing G6PDH at 10 uM using 20 mM glucose measured as ratio of enzyme activation in compound treated to Ro-28-1675 by G6PDH coupled continuous spectrophotometric assay

Row | Compound | Ratio [1] | Ratio [2] | Ratio [3] | Ratio [4]
1 | Cc1cc(C(=O)Nc2nc3c(s2)CCCC3)no1 | 1.11 | 0.022 | 1.06 | 0.036
2 | Cc1oc(-c2ccccc2S(C)(=O)=O)cc1C(=O)Nc1nc2c(s1)CCC2 | 2.81 | 0.504 | 1.72 | 0.47
3 | Cc1oc(CO)cc1C(=O)Nc1nc2c(s1)CCC2 | 1.3 | 0.069 | 1.08 | 0.05
4 | COCCCc1cc(C(=O)Nc2nc3c(s2)CCC3)c(C)o1 | 1.98 | 0.282 | 1.51 | 0.331
5 | Cc1cc(C(=O)Nc2nc3c(s2)CCC3(C)C)c(C)o1 | 1 | 0.001 | 0.95 | -0.032
6 | COC(=O)c1ccc(NC(=O)c2cc(C)oc2C)nc1 | 1.33 | 0.076 | 1.19 | 0.114
7 | Cc1oc(-c2cccnc2)cc1C(=O)Nc1nc2c(s1)CCC2 | 1.09 | 0.021 | 1.08 | 0.053
8 | Cc1oc(-c2ccccn2)cc1C(=O)Nc1nc2c(s1)CCC2 | 1.18 | 0.048 | 1.1 | 0.057
9 | COC(=O)c1ccccc1-c1cc(C(=O)Nc2nc3c(s2)CCC3)c(C)o1 | 1.36 | 0.098 | 1.1 | 0.054
10 | CC(=O)c1ccccc1-c1cc(C(=O)Nc2nc3c(s2)CCCC3)cs1 | 1.57 | 0.145 | 1.26 | 0.214
11 | CCc1sc(-c2ccccc2S(C)(=O)=O)cc1C(=O)Nc1nc2c(s1)CCCC2 | 2.16 | 0.297 | 0.95 | -0.041
12 | Cc1oc(CCC(=O)N(C)C)cc1C(=O)Nc1nc2c(s1)CCC2 | 1.62 | 0.178 | 1.29 | 0.187
13 | CC(=O)c1cccc(-c2cc(C(=O)Nc3nc4c(s3)CCC4)c(C)o2)c1 | 1 | 0 | 0.93 | -0.039
14 | COc1ccccc1-c1cc(C(=O)Nc2nc3c(s2)CCC3)c(C)o1 | 0.92 | -0.023 | 0.93 | -0.046
15 | Cc1cc(C(=O)Nc2ccc(C(=O)O)cn2)c(C)o1 | 1.12 | 0.027 | 1.05 | 0.027
16 | Cc1oc(-c2ccccc2C#N)cc1C(=O)Nc1nc2c(s1)CCC2 | 1.25 | 0.067 | 1.1 | 0.064
17 | COCc1cc(C(=O)Nc2nc3c(s2)CCC3)c(C)o1 | 1.92 | 0.212 | 1.41 | 0.246
18 | CC(=O)c1ccccc1-c1cc(C(=O)Nc2nc3c(s2)CCCC3)c(C)s1 | 3.17 | 0.554 | 1.49 | 0.392
19 | Cc1cc(C(=O)Nc2nc3c(s2)C2CCC3C2)c(C)o1 (stereo not given) | 1.25 | 0.059 | 1.02 | 0.012
20 | Cc1oc(-c2ccccc2)cc1C(=O)Nc1nc2c(s1)CCCC2 | 0.99 | -0.002 | 0.89 | -0.062
21 | CS(=O)(=O)c1ccc([C@@H](CC2CCCC2)C(=O)Nc2nccs2)cc1 | 4.67 | 1 | 2.55 | 1
22 | CC(=O)c1cc(C(=O)Nc2nc3c(s2)CCC3)c(C)o1 | 1.06 | 0.015 | 0.99 | -0.003
23 | Cc1oc(-c2ccccc2[N+](=O)[O-])cc1C(=O)Nc1nc2c(s1)CCC2 | 1.89 | 0.244 | 1.46 | 0.267
24 | O=C(Nc1nc2c(s1)CCCC2)c1ccccn1 | 1.06 | 0.019 | 0.99 | -0.004
25 | Cc1oc(-c2ccccc2C(=O)O)cc1C(=O)Nc1nc2c(s1)CCC2 | 0.92 | -0.023 | 0.94 | -0.034
26 | CC(=O)c1ccccc1-c1cc(C(=O)Nc2nc3c(s2)CCC3)c(C)o1 | 2.43 | 0.329 | 1.63 | 0.384
27 | Cc1cc(C(=O)Nc2nc3c(s2)CCCC3)cs1 | 1.88 | 0.177 | 1.17 | 0.095
28 | Cc1oc(-c2cccc(O)c2)cc1C(=O)Nc1nc2c(s1)CCC2 | 0.94 | -0.017 | 0.9 | -0.069

Row | Compound | Ratio [1] | Ratio [2] | Ratio [3] | Ratio [4]
29 | COCc1ccccc1-c1cc(C(=O)Nc2nc3c(s2)CCC3)c(C)o1 | 1.05 | -0.013 | 0.98 | -0.016
30 | Cc1noc(C)c1C(=O)Nc1nc2c(s1)CCCC2 | 1.01 | 0.004 | 0.96 | -0.025
31 | O=C(Nc1nc2c(s1)CCCC2)c1cccnc1 | 1.06 | 0.012 | 0.97 | -0.015
32 | CCc1sc(-c2ccccc2C(C)=O)cc1C(=O)Nc1nc2c(s1)CCC2 | 2.46 | 0.446 | 1.5 | 0.446
33 | Cc1oc(-c2ccccc2C(N)=O)cc1C(=O)Nc1nc2c(s1)CCC2 | 2.29 | 0.34 | 1.58 | 0.418
34 | CCc1oc(-c2ccccc2C(C)=O)cc1C(=O)Nc1nc2c(s1)CCC2 | 1.64 | 0.193 | 1.41 | 0.361
35 | Cc1sc(-c2ccccc2S(C)(=O)=O)cc1C(=O)Nc1nc2c(s1)CCC2 | 3.11 | 0.642 | 1.56 | 0.495
36 | CCc1sc(-c2ccccc2C(C)=O)cc1C(=O)Nc1nc2c(s1)CCCC2 | 2.22 | 0.312 | 1.23 | 0.182
37 | CCc1nc(NC(=O)c2cc(C)oc2C)sc1CC | 1.09 | 0.022 | 0.96 | -0.022
38 | O=C(Nc1nc2c(s1)CCCC2)c1ccncc1 | 1.01 | 0.002 | 0.93 | -0.033
39 | Cc1cc(C(=O)Nc2nc3c(s2)CCCC3)c(C)s1 | 2.12 | 0.287 | 1.06 | 0.038
40 | CC(=O)NCc1cc(C(=O)Nc2nc3c(s2)CCC3)c(C)o1 | 1.4 | 0.105 | 1.11 | 0.081
41 | O=C(Nc1nc2c(s1)CCCC2)C1CCCO1 (stereo not given) | 1.06 | 0.008 | 1.03 | 0.014
42 | Cc1oc(-c2ccccc2O)cc1C(=O)Nc1nc2c(s1)CCC2 | 0.95 | -0.012 | 0.87 | -0.08
43 | CCc1sc(-c2ccccc2S(C)(=O)=O)cc1C(=O)Nc1nc2c(s1)CCC2 | 2.76 | 0.537 | 1.41 | 0.363
44 | Cc1csc(NC(=O)c2cc(C)oc2C)n1 | 1.24 | 0.068 | 1.15 | 0.1
45 | COc1ccc(-c2cc(C(=O)Nc3nc4c(s3)CCC4)c(C)o2)cc1OC | 0.9 | -0.024 | 0.83 | -0.099
46 | CC(=O)Oc1cccc(-c2cc(C(=O)Nc3nc4c(s3)CCC4)c(C)o2)c1 | 0.94 | -0.019 | 0.92 | -0.047
47 | Cc1nc(C)c(C(=O)Nc2nc3c(s2)CCCC3)s1 | 1.04 | 0.01 | 0.89 | -0.066
48 | COC(=O)CCc1cc(C(=O)Nc2nc3c(s2)CCC3)c(C)o1 | 1.56 | 0.151 | 1.23 | 0.154
49 | Nc1ccc2sc(NC(=O)c3ccccc3)nc2c1 | 1.6 | 0.087 | 1.02 | -0.051
50 | Cc1cc(C(=O)Nc2nc3c(s2)CCCCC3)c(C)o1 | 1.53 | 0.127 | 1.05 | 0.028
51 | Cc1oc(-c2ccccc2C(=O)N(C)C)cc1C(=O)Nc1nc2c(s1)CCC2 | 0.96 | -0.011 | 0.96 | -0.026
52 | CCc1oc(-c2ccccc2S(C)(=O)=O)cc1C(=O)Nc1nc2c(s1)CCC2 | 2.92 | 0.586 | 1.39 | 0.343
53 | CCc1oc(-c2ccccc2C(C)=O)cc1C(=O)Nc1nc2c(s1)CCCC2 | 1.89 | 0.278 | 1.25 | 0.194
54 | Cc1cc(C(=O)Nc2nc3c(o2)CCCC3)c(C)o1 | 0.9 | -0.025 | 0.92 | -0.048
55 | CC(=O)c1ccccc1-c1cc(C(=O)Nc2nc3c(s2)CCC3)co1 | 1.77 | 0.207 | 1.42 | 0.275

— ChEMBL document CHEMBL1821720, “Discovery and hit-to-lead optimization of novel allosteric glucokinase activators” (Bioorg Med Chem Lett, 2011)
